pIC50: −log10 of the molar value. Structures can show the parent of a compound that is named as a salt.

Results on 31 compounds are retold here after patent publication US5780642A, “Imidazole derivatives as therapeutic agents” (KNOLL Aktiengesellschaft, priority 1993, dated 1998).

For the first assay, the system named is Zymosan Stimulated Macrophages (arachidonic acid release). As to the kind of experiment: Test A: Inhibition of Arachidonic Acid Release from Zymosan Stimulated Macrophages. It counts as cell-based, mouse (female MF1 mice). Conditions: Mus musculus, Macrophage, inhibition of arachidonic acid release, zymosan stimulated mouse peritoneal macrophages; tested at 100, 50, 20, 10, 5 and 1 μM; ≤100 μM considered active; read-out: Test A IC50. Here is the method: Test A was carried out in the following way:
Inhibition of Arachidonic Acid Release from Zymosan Stimulated Macrophages
Female MF1 mice (weighing 20 to 25 g) were killed using a rising concentration of CO2. The mice were laid on their backs and the abdomens wiped with 70% alcohol. The skin was pulled back, exposing the peritoneal wall. Medium A (5 ml) (see below) was injected into the peritoneal cavity of each mouse followed by approximately 1 ml of air using a 20 ml syringe and a 21G×40 mm needle in order to form a suspension of macrophage cells. The medium and cells were then removed using a 19G×40 mm needle. The resulting suspension was returned to a sterile beaker kept on ice. The extracts from all the mice were pooled and this pooled cell suspension was counted using a Coulter counter and adjusted to a final cell count of 1-1.3×10^6 cells/ml prior to labelling with [^3 H]-arachidonic acid. Typically five mice provided sufficient cells for each multiwell plate.
Sufficient [^3 H]-arachidonic acid in ethanol to give a final concentration of 1.6 μCi/ml (equivalent to 40 μCi/plate) was blown to dryness under nitrogen. The arachidonic acid was then resuspended in 1 or 2 ml of the cell suspension which was then mixed with the remainder of the cell suspension in a centrifuge bottle. The labelled cell suspension was then plated out into sterile plastic 96 flat-bottomed well plates (250 μl per well) and incubated overnight at 37° C. in a moist atmosphere of 5% CO2, 95% air.
The following day, non-adherent cells were removed by washing 3 times with sterile phosphate buffered saline (PBS). The adherent peritoneal macrophages were then cultured for a further 24 hours in the presence or absence of drugs, in medium B (see below) at 37° in a 5% CO2 atmosphere in order to measure the effects of drugs on the spontaneous release of arachidonic acid in the absence of stimulus. After this incubation, supernatants were removed to give media 1 and stored in sealed multi-well plates at 4° C. prior to scintillation counting. Drugs which potentiated spontaneous release of arachidonic acid (125% of controls) were deemed to be toxic at the concentration at which this phenomenon occurred. The supernatants were replaced by fresh medium C containing fresh drug and a stimulus. Three drugs were tested at six concentrations (100, 50, 20, 10, 5 and 1 μM) in replicates of four on each plate. The other wells contained controls consisting of a positive control (e.g. dexamethasone), medium (B) only and medium C only.
Incubation was then continued for a further 5 hours, whereupon the supernatants were collected to give media 2 and the adherent cells washed with PBS. The cells were then lysed with 100 μl of 0.1% TRITON® X100 in a 0.1% solution of bovine serum albumin in 0.9% saline and mechanically disrupted to give cell lysates. These supernatants (media 2) and cell lysates (Cells) were also stored in sealed multi-well plates at 4° C. prior to scintillation counting. 200 μl aliquots of media, or 100 μl aliquots of cells were counted using 2 ml of OPTIPHASE "HIGH SAFE" (Trademark of LKB) as scintillant.
The percentage of arachidonic acid released was calculated using the mean values for each group of 4 wells in the following equation. [formula]
The value for the arachidonic acid release in the absence of stimulus (spontaneous, cpm of media 2) from cells which had been exposed to neither stimulus nor drug was subtracted from all equivalent values (cpm media 2, stimulated with or without drug) to give the net stimulated release. The percentage inhibition of arachidonic acid release caused by a drug may then be calculated using the following equation. [formula]
Compounds of formula I were tested at six concentrations (100, 50, 20, 10, 5 and 1 μM) and IC50 values calculated. Compounds with IC50 values≤100 μM are considered to be active. Advantageous compounds have an IC50 value<50 μM.
Medium A (for peritoneal lavage) […]
As to `COc1ccc(S(=O)(=O)NCCc2ccc(C(C)(C)NCCCn3ccnc3)cc2)cc1` [Example 42, N-[2-(4-{1-[3-(Imidazol-1-yl)propylamino]-1-methylethyl}phenyl)ethyl]-4-methoxybenzenesulphonamide], the pIC50 is 5.05.
Turning to `CCC(CC)(NCC(O)Cn1ccnc1)c1ccccc1` (stereo not shown) [Example 44, 1-(1-Ethyl-1-phenylpropylamino)-3-(imidazol-1-yl)-propan-2-ol], the pIC50 was 3.92.
Still for that read-out and setting: as for `CCCCCCNC(=O)Cc1ccc(C(C)(C)NCC(O)Cn2ccnc2)cc1` (stereo not shown) [Example 47, N-Hexyl-4-{1-[2-hydroxy-3-(imidazol-1-yl)propylamino]-1-methylethyl}phenylacetamide], the figure is 4.19.
Same read-out and setting: as for `CC(C)(NCC(O)Cn1ccnc1)c1ccc(C(=O)NC2CCCCC2)cc1` (stereo not shown) [Example 48, N-Cyclohexyl-4-{1-[2-hydroxy-3-(imidazol-1-yl)propylamino]-1-methylethyl}benzamide], the figure is 4.15; as for `CC1(C)COC(c2ccc(C(C)(C)NCC(O)Cn3ccnc3)cc2)=N1` (stereo not shown) [Example 49, 1-{1-[4-(4,4-Dimethyl-2-oxazolin-2-yl)phenyl]-1-methylethylamino}-3-(imidazol-1-yl)propan-2-ol hemihydrate], 4.15; as for `CSc1ccc(OCC(C)(C)NCC(O)Cn2ccnc2)cc1` (stereo not shown) [Example 51, 3-(Imidazol-1-yl)-1-[2-(4-methylthiophenoxy)-1,1-dimethylethylamino]propan-2-ol], 4.06.
As for `CC(C)(COc1ccc(Cl)cc1)NCC(O)Cn1ccnc1` (stereo not shown) [Example 52, 1-[2-(4-Chlorophenoxy)-1,1-dimethylethylamino]-3-(imidazol-1-yl)propan-2-ol], the pIC50 is 4.64.
Take `CC(C)(COc1ccccc1)NCC(O)Cn1ccnc1` (stereo not shown) [Example 53, 3-(Imidazol-1-yl)-1-(2-phenoxy-1,1-dimethylethylamino) propan-2-ol]: the pIC50 was 4.00.
`CC(C)(NCCCn1cnc(CCNS(=O)(=O)c2ccccc2)c1)c1ccc(Cl)cc1` [Example 54, N-[2-(1-{3-[1-(4-chlorophenyl)-1-methylethylamino]-propyl}imidazol-4-yl)ethyl]benzenesulphonamide]: the pIC50 was 5.15.
Same read-out and setting: as for `CC(C)(NCCCn1cnc(CCNC(=O)c2ccccc2)c1)c1ccc(Cl)cc1` [Example 55, N-[2-(1-(3-[1-(4-chlorophenyl)-1-methylethylamino]propyl}imidazol-4-yl)ethyl]benzamide], the figure is 5.15; as for `CC(C)(NCCCn1ccnc1)c1ccc(CCNC(=O)c2ccccc2)cc1` [Example 57, N-[2-(4-{1-[3-(imidazol-1-yl)propylamino]-1-methylethyl}phenyl)-ethyl]benzamide], 4.68; as for `CCCCNC(=O)NCCc1ccc(C(C)(C)NCCCn2ccnc2)cc1` [Example 58, N-butyl-N'-[2-(4-{1-[3-(imidazol-1-yl)propylamino]-1-methylethyl}phenyl)ethyl]urea], 4.70.
For `CCC(CC)(NCCCn1cnc(CCNC(=O)c2ccc(OC)cc2)c1)c1ccccc1` [Example 61, N-(2-{1-[3-(1-ethyl-1-phenylpropylamino)propyl]-imidazol-4-yl}ethyl)-4-methoxybenzamide], the pIC50 was 5.05.
`CCC(CC)(NCCCn1cnc(CCNC(=O)c2ccc(C#N)cc2)c1)c1ccccc1` [Example 62, 4-cyano-N-(2-{1-[3-(1-ethyl-1-phenylpropylamino)propyl]imidazol-4-yl}ethyl)benzamide]: the pIC50 was 4.85.
Take `CC(C)(NCC(O)Cn1cnc(CCNC(=O)c2ccccc2)c1)c1ccc(Cl)cc1` (stereo not shown) [Example 63, N-[2-(1-{3-[1-(4-chlorophenyl)-1-methylethylamino]-2-hydroxypropyl}imidazol-4-yl)ethyl]benzamide]: the pIC50 is 4.85.
On to `COC(=O)CN(CCCn1ccnc1)CCOc1ccc(Cl)cc1` [Example 65, methyl N-[2-(4-chlorophenoxy)ethyl]-N-[3-(imidazol-1-yl)propyl]glycinate], for which the pIC50 was 4.06.
Turning to `OCCN(CCCn1ccnc1)CCOc1ccc(Cl)cc1` [Example 66, 2-{N-[2-(4-chlorophenoxy)ethyl]-N-[3-(imidazol-1-yl)propyl]amino}ethanol], the pIC50 was 4.62.
As for `CCCCS(=O)(=O)Oc1ccc(OCCNCCCn2ccnc2)cc1` [Example 67, 4-{2-[3-(imidazol-1-yl)propylamino]ethoxy}phenyl 1-butane sulphonate], the pIC50 is 4.70.
Consider `CC(C)(C[S+]([O-])c1ccc(Cl)cc1)NCCCn1ccnc1` (stereo not shown) [Example 68, N-[2-(4-chlorophenylsulphinyl)-1,1-dimethylethyl]-3-(imidazol-1-yl)propylamine dihydrochloride], for which the pIC50 is 4.00.
Consider `Cc1cc(S(=O)(=O)CC(C)(C)NCCCn2ccnc2)c(C)cc1Cl` [Example 69, N-[2-(4-chloro-2,5-xylylsulphonyl)-1,1-dimethylethyl]-3-(imidazol-1-yl)propylamine dihydrochloride hemihydrate], for which the pIC50 is 4.30.
The same measure, in the same setting: the value for `CC(C)(CS(=O)(=O)c1ccc(C(C)(C)C)cc1)NCCCn1ccnc1` [Example 70, N-[2-(4-t-butylphenylsulphonyl)-1,1-dimethylethyl]-3-(imidazol-1-yl)-propylamine dihydrochloride] was 4.08; that for `CC(C)(NCCCn1ccnc1)c1ccc(OS(=O)(=O)c2ccccc2)cc1` [Example 71, 4-{1-[3-(imidazol-1-yl)propylamino]-1-methylethyl}phenyl benzenesulphonate] was 4.64.
As to `CCCCS(=O)(=O)Oc1ccc(C(C)(C)NCCCn2ccnc2)cc1` [Example 72, 4-{1-[3-(imidazol-1-yl)propylamino]-1-methylethyl}phenyl 1-butanesulphonate], the pIC50 is 4.62.
With `CC(C)(NCCCn1ccnc1)c1ccc(Cl)c(NC(=O)c2ccccc2)c1` [Example 73, 2'-chloro-5'-{1-[3-(imidazol-1-yl)propylamino]-1-methylethyl}benzanilide], the pIC50 was 4.60.
Still for that read-out and setting: as for `CCCOC(=O)c1ccc(C(C)(C)NCC(O)Cn2ccnc2)cc1` (stereo not shown) [Example 74, propyl 4-{1-[2-hydroxy-3-(imidazol-1-yl)propylamino]-1-methylethyl}benzoate], the figure is 4.09; as for `CC(C)(COc1ccccc1)NCCCCCn1ccnc1` [Example 75, 5-(imidazol-1-yl)-N-(1,1-dimethyl-2-phenoxyethyl)pentylamine], 4.59.
Consider `CC(C)(COc1ccccc1)NCCCn1cnc(CCNC(=O)c2ccccc2)c1` [Example 76, N-(2-{1-[3-(1,1-dimethyl-2-phenoxyethylamino)-propyl]imidazol-4-yl}ethyl)benzamide], for which the pIC50 is 4.80.
Regarding `CC(C)(COc1ccccc1)NCCCn1cnc(CCNS(=O)(=O)c2ccccc2)c1` [Example 77, N-(2-{1-[3-(1,1-dimethyl-2-phenoxyethylamino)propyl]imidazol-4-yl}ethyl]benzene-sulphonamide], the negative logarithm of the IC50 (pIC50) was 4.92.
In the case of `CC(C)(COC(=O)c1ccccc1)NCCCn1ccnc1` [Example 78, 2-[3-(imidazol-1-yl)propylamino]-2,2-dimethylethyl benzoate dihydrochloride], the pIC50 was 4.04.
`CC(C)(COC(=O)c1ccc(Cl)cc1)NCCCn1ccnc1` [Example 79, 2-[3-(imidazol-1-yl)propylamino]-2,2-dimethylethyl 4-chlorobenzoate dihydrochloride]: the pIC50 was 4.70.

The assay is the same for the next values; noted with them: Mus musculus, Macrophage, read-out: Test A IC50.
Turning to `CC(C)(NCCCn1ccnc1)c1ccc(-c2ccc(O)cc2)cc1` [Example 59, 4'-{1-[3-(imidazol-1-yl)propylamino]-1-methylethyl}biphenyl-4-ol], the pIC50 is 5.10.
